The results in this text go back to US20200315176A1, “FUNGICIDAL COMPOSITIONS” (SYNGENTA PARTICIPATIONS AG, priority 2017, published 2020).

One may read the melting point as the temperature, or range, at which the solid turns liquid.

The test system of data set [1] is Puccinia recondita f. sp. tritici. Kind of data set: Example A1: fungicidal activity against Puccinia recondita f. sp. tritici / wheat / leaf disc preventative (brown rust). As to conditions: foliar, 200 ppm in the applied formulation, wheat leaf segments, compared to untreated, read-out: disease control. The data set is classed as in vivo. How it is done:
(§1) Leaf disks or leaf segments of various plant species are cut from plants grown in a greenhouse. The cut leaf disks or segments are placed in multiwell plates (24-well format) onto water agar. The leaf disks are sprayed with a test solution before (preventative) or after (curative) inoculation. Compounds to be tested are prepared as DMSO solutions (max. 10 mg/mL) which are diluted to the appropriate concentration with 0.025% Tween20 just before spraying. The inoculated leaf disks or segments are incubated under defined conditions (temperature, relative humidity, light, etc.) according to the respective test system. A single evaluation of disease level is carried out 3 to 14 days after inoculation, depending on the pathosystem. Percent disease control relative to the untreated check leaf disks or segments is then calculated.
Wheat leaf segments cv. Kanzler were placed on agar in multiwell plates (24-well format) and sprayed with the formulated test compound diluted in water. The leaf disks were inoculated with a spore suspension of the fungus 1 day after application. The inoculated leaf segments were incubated at 19° C. and 75% relative humidity (rh) under a light regime of 12 hours light/12 hours darkness in a climate cabinet and the activity of a compound was assessed as percent disease control compared to untreated when an appropriate level of disease damage appears in untreated check leaf segments (7 to 9 days after application).

Data set [2] has as its system Glomerella lagenarium (Colletotrichum lagenarium). Kind of data set: Example A4: fungicidal activity against Glomerella lagenarium (Colletotrichum lagenarium) liquid culture / cucumber / preventative (anthracnose). The data set is classed as cell-based. Conditions: Colletotrichum orbiculare, 20 ppm in the applied formulation, growth measured photometrically 3 to 4 days after application, read-out: disease control. How it is done:
Mycelia fragments or conidia suspensions of a fungus prepared either freshly from liquid cultures of the fungus or from cryogenic storage, are directly mixed into nutrient broth. DMSO solutions of the test compound (max. 10 mg/mL) are diluted with 0.025% Tween20 by a factor of 50 and 10 μL of this solution is pipetted into a microtiter plate (96-well format). The nutrient broth containing the fungal spores/mycelia fragments is then added to give an end concentration of the tested compound. The test plates are incubated in the dark at 24° C. and 96% relative humidity. The inhibition of fungal growth is determined photometrically after 2 to 7 days, depending on the pathosystem, and percent antifungal activity relative to the untreated check is calculated. Conidia of the fungus from cryogenic storage are directly mixed into nutrient broth (PDB—potato dextrose broth). After placing a (DMSO) solution of test compound into a microtiter plate (96-well format), the nutrient broth containing the fungal spores is added.

Data set [3] has as its system Puccinia recondita f. sp. tritici. As to the kind of experiment: Example A2: fungicidal activity against Puccinia recondita f. sp. tritici / wheat / leaf disc curative (brown rust). Conditions: foliar, 24 h, 200 ppm in the applied formulation, curative (applied 1 day after inoculation), wheat leaf segments, read-out: disease control. The data set is classed as in vivo. How it is done:
as §1
Wheat leaf segments cv. Kanzler are placed on agar in multiwell plates (24-well format). The leaf segments are then inoculated with a spore suspension of the fungus. Plates were stored in darkness at 19° C. and 75% relative humidity. The formulated test compound diluted in water was applied 1 day after inoculation. The leaf segments were incubated at 19° C. and 75% relative humidity under a light regime of 12 hours light/12 hours darkness in a climate cabinet and the activity of a compound was assessed as percent disease control compared to untreated when an appropriate level of disease damage appears in untreated check leaf segments (6 to 8 days after application).

Data set [4] concerns Phakopsora pachrhizi. Kind of data set: Example A3: fungicidal activity against Phakopsora pachrhizi / soybean / leaf disc preventative (Asian soybean rust). The data set is classed as in vivo. Conditions: Phakopsora pachyrhizi, foliar, 200 ppm in the applied formulation, soybean leaf disks, read-out: disease control. How it is done:
as §1
Soybean leaf disks are placed on water agar in multiwell plates (24-well format) and sprayed with the formulated test compound diluted in water. One day after application leaf discs are inoculated by spraying a spore suspension on the lower leaf surface. After an incubation period in a climate cabinet of 24-36 hours in darkness at 20° C. and 75% rh leaf disc are kept at 20° C. with 12 h light/day and 75% rh. The activity of a compound is assessed as percent disease control compared to untreated when an appropriate level of disease damage appears in untreated check leaf disks (12 to 14 days after application).

Take `CCCOC(=O)c1cnn(Cc2ccc(-c3noc(C(F)(F)F)n3)cc2)c1` [X.16, propyl 1-[[4-[5-(trifluoromethyl)-1,2,4-oxadiazol-3-yl]phenyl]methyl]pyrazole-4-carboxylate]: the melting point is 105 to 115 °C. The pest or weed control at 200 ppm in data set [1] was at least 80%. Also, the inhibition of growth at 20 ppm in data set [2] was at least 80%. Also, the pest or weed control at 200 ppm in data set [3] is at least 80%. Also, the pest or weed control at 200 ppm in data set [4] is at least 80%.

Take `CN(C)C(=O)c1cnn(Cc2ccc(-c3noc(C(F)(F)F)n3)cc2)c1` [X.05, N,N-dimethyl-1-[[4-[5-(trifluoromethyl)-1,2,4-oxadiazol-3-yl]phenyl]methyl]pyrazole-4-carboxamide]: the melting point was in the range of 124 to 129 °C. For the same compound, the pest or weed control at 200 ppm in data set [1] was at least 80%. Moreover, the inhibition of growth at 20 ppm in data set [2] was at least 80%. The pest or weed control at 200 ppm in data set [3] is at least 80%. For the same compound, the pest or weed control at 200 ppm in data set [4] was at least 80%.

For `CONC(=O)c1cnn(Cc2ccc(-c3noc(C(F)(F)F)n3)cc2)c1` [X.17, N-methoxy-1-[[4-[5-(trifluoromethyl)-1,2,4-oxadiazol-3-yl]phenyl]methyl]pyrazole-4-carboxamide], the melting point is 128 to 138 °C. Also, the pest or weed control at 200 ppm in data set [1] was at least 80%. Further, the inhibition of growth at 20 ppm in data set [2] was at least 80%. Further, the pest or weed control at 200 ppm in data set [3] was at least 80%. In addition, the pest or weed control at 200 ppm in data set [4] was at least 80%.

As for `FC(F)(F)c1ncn(Cc2ccc(-c3noc(C(F)(F)F)n3)cc2)n1` [X.01, 5-(trifluoromethyl)-3-[4-[[3-(trifluoromethyl)-1,2,4-triazol-1-yl]methyl]phenyl]-1,2,4-oxadiazole], the melting point was in the range of 68.2 to 70.1 °C. Besides, in data set [1], the pest or weed control at 200 ppm was at least 80%. In addition, in data set [2], the inhibition of growth at 20 ppm was at least 80%. The pest or weed control at 200 ppm in data set [3] is at least 80%. For the same compound, the pest or weed control at 200 ppm in data set [4] was at least 80%.
